Source: PMC10011573, “Development of novel broad-spectrum antimicrobial lipopeptides derived from plantaricin NC8 β” (Scientific Reports, 2023)
pEC50: −log10 of the molar value. Where two headings read alike, the source gives them in different places. Residues, ends and D or L forms follow the SMILES beside them. No end group written: not given here. *: point of attachment. Pentadecanoyl = CCCCCCCCCCCCCCC(=O)*; Decanoyl = CCCCCCCCCC(=O)*; Octanoyl = CCCCCCCC(=O)*; Butyryl = CCCC(=O)*

How the values were obtained:
E. coli (K-12 MG1655) = system: E. coli (K-12 MG1655)
Procedure: (§1) S. aureus (ATCC 29213, MSSA, ATCC, Manassas, VA), E. coli (K-12 MG1655) and clinical isolates of S. aureus, E. coli, E. faecium, K. pneumoniae, A. baumannii, P. aeruginosa and E. cloacae obtained from the Department of Laboratory Medicine at Örebro University Hospital were streaked on Luria–Bertani (LB) agar plates and incubated at 37 °C overnight. Single colonies were inoculated into 5 ml of LB broth and incubated on a shaker (400 rpm) at 37 °C overnight. The bacterial concentrations were determined by viable count and were adjusted to correlate with approximately 10^9 CFU/ml.
(§2) The broth microdilution method was used to determine minimal inhibitory concentration (MIC) and minimal bactericidal concentration (MBC), in accordance with the EUCAST standards for the broth microdilution method. Two-fold serial dilutions of the lipopeptides were used, and the final concentrations ranged from 0.19 to 100 µM. In brief, two-fold serial dilutions of the lipopeptides were performed in a 96-well plate in PBS, with a final volume of 100 µl per well, after which 100 µl of LB-broth media containing approximately 5 × 10^5 CFU/ml of bacteria was added to each well. The plate was then incubated for 20 h in 37 °C on a shaker (400 rpm). The effect of lipopeptide-antibiotic combinations was investigated by performing checkerboard assays. The assays were performed in accordance with the MIC and MBC tests conducted above, but with horizontal and longitudinal two-fold serial dilutions of the tested compounds. […] The fractional inhibitory concentration (FIC) and fractional bactericidal concentration (FBC) were calculated by the equation (MIC or MBC of peptide in combination/MIC or MBC of peptide alone) + (MIC or MBC of antibiotic in combination/MIC or MBC of antibiotic alone). Synergy was defined as FIC/FBC ≤ 0.5, additive when 0.5 < FIC/FBC ≤ 1, indifferent when 1 < FIC/FBC < 2 and antagonistic when FIC/FBC ≥ 2. All experiments were repeated at least three times.

[1] = system: S. aureus (ATCC 29213, MSSA)
Procedure: as §1, §2

[2] = Carboxyfluorescein release assay, bacterial liposome model; type: biochemical; conditions: for pEC50: 75:25 POPC:POPG liposomes, 25 µM lipid, 10 mM PBS pH 7.4, 10^–5–10^2 µM peptide, 60 min, fluorescence, Hill fit, n = 3, read-out: EC50 Bacterial (concentration that triggers 50% CF release)
Procedure: (§3) Liposomes were prepared by thin-film hydration method. Lipids stock solutions (10 mg/ml in chloroform, Avanti Polar Lipids, Inc., Alabaster, United States) of the lipids 1-palmitoyl-2-oleoyl-sn-glycero-3-phosphocholine (POPC), 1-palmitoyl-2-oleoyl-sn-glycero-3-phospho-L-serine (POPS), 1-Hexadecanoyl-2-(9Z-Octadecenoyl)-sn-Glycero-3-Phosphoglycerol (POPG) and Cholesterol (Chol) were employed. Bacterial liposomes were prepared with a 75:25 ratio of POPC:POPG and mammalian liposomes were prepared with a 65:5:30 ratio of POPC:POPS:Chol. Lipid solutions were thoroughly homogenised, and the solvent was evaporated with the use of a dry N2 steam to yield a lipid cake. […] The lipid film was subsequently hydrated with a 5(6)-CF solution (50 mM CF, 10 mM PBS, 90 mM NaCl, pH 7.4). Following a 10 min incubation on orbital shaker (50 min^−1), the solution was vortexed for 60 s on medium speed. A mini extruder (Avanti Polar Lipids, Inc., United States) was employed and 21 extrusions were performed through a 0.1 µm filter membrane (Nuclepore track-etched hydrophilic membrane, Cytiva, Whatman, MA, United States), resulting in monodispersed unilamellar liposomes. Directly before use the liposomes were purified from unencapsulated CF by filtration through a gel filtration column (PD Minitrap G-25 column, Cytiva, United States), against PBS buffer (10 mM, pH 7.4).
(§4) Peptide and lipopeptide activity towards liposome models were evaluated using a carboxyfluorescein (CF) release assay. Liposomes were diluted in PBS (10 mM, pH 7.4) to a final lipid concentration of 25 µM and incubated with peptides (10^–5–10^2 µM) in a 96-well plate (n = 3). CF release was monitored using an Infinite M1000 PRO plate reader every 2.5 min for 1 h. Full (100%) CF release was obtained by addition of 1% Triton X-100 solution followed by 10 min incubation. CF release percentage was evaluated according to the formula 100 * (F − F0)/(FT − F0), where F indicates the instantaneous fluorescence, FT the total fluorescence and F0 the background fluorescence prior to peptide addition. Data were fitted to a Hill-1 curve using MATLAB R2019a (The MathWorks Inc., Natick, Massachusetts, United States) and the half maximum effective concentration (EC50) was extracted.

[3] = Carboxyfluorescein release assay, mammalian liposome model; type: biochemical; conditions: 65:5:30 POPC:POPS:Chol. liposomes, 25 µM lipid, 10 mM PBS pH 7.4, 10^–5–10^2 µM peptide, 60 min, fluorescence, Hill fit, n = 3; read-out: EC50 Mammalial (concentration that triggers 50% CF release)
Procedure: as §3, §4

S. aureus (ATCC 29213) = type: cell-based; conditions: Table 6; ATCC 29213; checkerboard assay, 50:50 PBS/LB-broth, 200 µL
Procedure: as §2, with “Two-fold serial dilutions of the lipopeptides were used, and the final concentrations ranged from 0.19 to 100 µM.” left out, “Synergy was defined as FIC/FBC ≤ 0.5, additive when 0.5 < FIC/FBC ≤ 1, indifferent when 1 < FIC/FBC < 2 and antagonistic when FIC/FBC ≥ 2.” left out

[4] = Table 3, K-12 MG1655, broth microdilution, 50:50 PBS/LB-broth, 200 µL, 20 h, 37 °C
[5] = Table 3, ATCC 29213, broth microdilution, 50:50 PBS/LB-broth, 200 µL, 20 h, 37 °C

Row | Compound | E. coli MBC (E. coli (K-12 MG1655); K-12, 20 h) [µM] | E. coli MIC (E. coli (K-12 MG1655); K-12, 20 h) [µM] | S. aureus MBC ([1]; ATCC 29213, 20 h) [µM] | S. aureus MIC ([1]; ATCC 29213, 20 h) [µM] | pEC50 [2] | pEC50 [3] | further results
1 | CCCC(=O)N[C@@H](CC(C)C)C(=O)NCC(=O)N[C@H](C(=O)N[C@@H](CCCCN)C(=O)N[C@H](C(=O)N[C@@H](CC(C)C)C(=O)N[C@@H](Cc1c[nH]c2ccccc12)C(=O)N[C@@H](CO)C(=O)N[C@@H](C)C(=O)N[C@@H](Cc1ccc(O)cc1)C(=O)N[C@@H](CCCCN)C(=O)N[C@@H](Cc1c[nH]cn1)C(=O)N[C@@H](CCCNC(=N)N)C(=O)N[C@@H](CCCCN)C(=O)N[C@H](C(=O)N[C@H](C(N)=O)[C@@H](C)CC)[C@@H](C)O)[C@@H](C)CC)[C@@H](C)CC [L-6-C4] (Butyryl-LGIKILWSAYKHRKTI-NH2) | 25 | 12.5 | 25 | 12.5 | 6.96 | < 5.00 | –
2 | CCCCCCCC(=O)N[C@@H](CC(C)C)C(=O)NCC(=O)N[C@H](C(=O)N[C@@H](CCCCN)C(=O)N[C@H](C(=O)N[C@@H](CC(C)C)C(=O)N[C@@H](Cc1c[nH]c2ccccc12)C(=O)N[C@@H](CO)C(=O)N[C@@H](C)C(=O)N[C@@H](Cc1ccc(O)cc1)C(=O)N[C@@H](CCCCN)C(=O)N[C@@H](Cc1c[nH]cn1)C(=O)N[C@@H](CCCNC(=N)N)C(=O)N[C@@H](CCCCN)C(=O)N[C@H](C(=O)N[C@H](C(N)=O)[C@@H](C)CC)[C@@H](C)O)[C@@H](C)CC)[C@@H](C)CC [L-6-C8] (Octanoyl-LGIKILWSAYKHRKTI-NH2) | 12.5 | 12.5 | 3.1 | 3.1 | 6.72 | 6.03 | –
3 | CCCCCCCCCC(=O)N[C@@H](CC(C)C)C(=O)NCC(=O)N[C@H](C(=O)N[C@@H](CCCCN)C(=O)N[C@H](C(=O)N[C@@H](CC(C)C)C(=O)N[C@@H](Cc1c[nH]c2ccccc12)C(=O)N[C@@H](CO)C(=O)N[C@@H](C)C(=O)N[C@@H](Cc1ccc(O)cc1)C(=O)N[C@@H](CCCCN)C(=O)N[C@@H](Cc1c[nH]cn1)C(=O)N[C@@H](CCCNC(=N)N)C(=O)N[C@@H](CCCCN)C(=O)N[C@H](C(=O)N[C@H](C(N)=O)[C@@H](C)CC)[C@@H](C)O)[C@@H](C)CC)[C@@H](C)CC [L-6-C10] (Decanoyl-LGIKILWSAYKHRKTI-NH2) | > 100 | > 100 | > 100 | 50 | 5.96 | 6.17 | –
4 | CCCCCCCCCCCCCCC(=O)N[C@@H](CC(C)C)C(=O)NCC(=O)N[C@H](C(=O)N[C@@H](CCCCN)C(=O)N[C@H](C(=O)N[C@@H](CC(C)C)C(=O)N[C@@H](Cc1c[nH]c2ccccc12)C(=O)N[C@@H](CO)C(=O)N[C@@H](C)C(=O)N[C@@H](Cc1ccc(O)cc1)C(=O)N[C@@H](CCCCN)C(=O)N[C@@H](Cc1c[nH]cn1)C(=O)N[C@@H](CCCNC(=N)N)C(=O)N[C@@H](CCCCN)C(=O)N[C@H](C(=O)N[C@H](C(N)=O)[C@@H](C)CC)[C@@H](C)O)[C@@H](C)CC)[C@@H](C)CC [L-6-C15] (Pentadecanoyl-LGIKILWSAYKHRKTI-NH2) | > 100 | > 100 | > 100 | > 100 | 4.71 | 6.06 | –
5 | CN(C)[C@@H]1C(O)=C(C(N)=O)C(=O)[C@@]2(O)C(O)=C3C(=O)c4c(O)cccc4[C@@](C)(O)[C@H]3C[C@@H]12 [Tetracycline] | – | – | – | – | – | – | S. aureus MBC, antibiotic alone (S. aureus (ATCC 29213)): 8 µg/mL; S. aureus MIC, antibiotic alone (S. aureus (ATCC 29213)): 0.5 µg/mL
6 | Ac-ILWSAYKHR-NH2 [S2] | > 100 | > 100 | > 100 | > 100 | – | – | –
7 | Ac-KILWSAYKHR-NH2 [S1] | > 100 | > 100 | > 100 | > 100 | – | – | –
8 | Ac-LWSAYKHR-NH2 [S3] | > 100 | > 100 | > 100 | > 100 | – | – | –
9 | Ac-WSAYK-NH2 [S6] | > 100 | > 100 | > 100 | > 100 | – | – | –
10 | Ac-WSAYKH-NH2 [S5] | > 100 | > 100 | > 100 | > 100 | – | – | –
11 | Ac-WSAYKHR-NH2 [S4] | > 100 | > 100 | > 100 | > 100 | – | – | –
12 | PEG800-LGIKILWSAYKHRKTI [L-6-Peg800] | – | – | – | – | – | – | E. coli MBC (E. coli (K-12 MG1655); [4]): > 100 µM; E. coli MIC (E. coli (K-12 MG1655); [4]): > 100 µM; S. aureus MBC [1, 5]: > 100 µM; S. aureus MIC [1, 5]: > 100 µM
13 | SVPTSVYTLGIKILWSAYKHRKTIEKSFNKGFYH [PLNC8 β, reference compound] | – | – | – | – | 7.70 | 5.90 | E. coli MIC (E. coli (K-12 MG1655); Table 2, K-12 MG1655, broth microdilution, 50:50 PBS/LB-broth, 200 µL, 20 h, 37 °C): > 100 µM; E. coli MBC (E. coli (K-12 MG1655); Table 2, K-12 MG1655, broth microdilution, 50:50 PBS/LB-broth, 20 h, 37 °C, 10 µl drops on LB-agar): > 100 µM; E. coli MBC (E. coli (K-12 MG1655); [4]): > 100 µM; S. aureus MBC ([1]; Table 2, ATCC 29213, broth microdilution, 50:50 PBS/LB-broth, 20 h, 37 °C, 10 µl drops on LB-agar): > 100 µM; S. aureus MIC ([1]; Table 2, ATCC 29213, broth microdilution, peptide in PBS, bacteria in LB-broth, 200 µL, 50:50 PBS/broth, ~5 × 10^5 CFU/ml, 20 h, 37 °C, repeated at least three times): > 100 µM; S. aureus MBC [1, 5]: > 100 µM; S. aureus MIC [1, 5]: > 100 µM; CF release ([2]; bacterial-mimicking liposomes, peptide 100 pM, after 60 min of incubation): ~ 20%
